Laboratory results from patent US20240002391A1, “4-ALKOXYPYRROLO[2,1-F][1,2,4]TRIAZINES AND PREPARATION AND USES THEREOF” (BioSplice Therapeutics, Inc., priority 2022, published 2024).

Each compound was assayed against recombinant DYRK1A kinase (Homo sapiens (Human), UniProt Q13627) (assay: DYRK1A kinase assay (Ser/Thr 18 peptide Z-lyte FRET)). Details: DYRK1A kinase activity, Z-lyte Ser/Thr 18 peptide, 15 μM ATP; method text calls the value IC50; read-out: EC50 (the source's name).
Type: biochemical
How it was run: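 Steps: combine 0.25 μg/mL kinase, 15 μM ATP and 4 μM peptide with test compound; incubate 1 h at room temperature; add diluted development reagent for another hour; read coumarin and fluorescein emission at Ex 400. The emission ratio yields percent phosphorylation, from which IC50 is derived.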

IC50 [nM]	SMILES
8.5	COc1nc(NC2CCN(C3COC3)CC2)nn2ccc(-c3ccc4nccn4c3)c12 [Compound 62, 5-(Imidazo[1,2-a]pyridin-6-yl)-4-methoxy-N-(1-(oxetan-3-yl)piperidin-4-yl)pyrrolo[2,1-f][1,2,4]triazin-2-amine]
0.8	COc1nc(N[C@@H]2CN(C(C)=O)C[C@@H]2F)nn2ccc(-c3ccc4nnn(CC(F)F)c4c3)c12 [Compound 734, 1-((3R,4S)-3-((5-(1-(2,2-Difluoroethyl)-1H-benzo[d][1,2,3]triazol-6-yl)-4-methoxypyrrolo[2,1-f][1,2,4]triazin-2-yl)amino)-4-fluoropyrrolidin-1-yl)ethan-1-one]
3.3	c1cnc2cc(-c3ccn4nc(NC5CCC6(CC5)COC6)nc(OC5COC5)c34)ccc2n1 [Compound 1138, 4-(Oxetan-3-yloxy)-5-(quinoxalin-6-yl)-N-(2-oxaspiro[3.5]nonan-7-yl)pyrrolo[2,1-f][1,2,4]triazin-2-amine]
1.7	COc1nc(N[C@@H]2CCN(C3COC3)C[C@@H]2F)nn2ccc(-c3ccc4nnn(CC(F)F)c4c3)c12 [Compound 761, 5-(1-(2,2-Difluoroethyl)-1H-benzo[d][1,2,3]triazol-6-yl)-N-((3S,4R)-3-fluoro-1-(oxetan-3-yl)piperidin-4-yl)-4-methoxypyrrolo[2,1-f][1,2,4]triazin-2-amine]
2.1	COc1nc(N[C@H]2CCN(C(C)=O)C[C@H]2F)nn2ccc(-c3ccc4ncccc4c3)c12 [Compound 1047, 1-((3R,4S)-3-Fluoro-4-((4-methoxy-5-(quinolin-6-yl)pyrrolo[2,1-f][1,2,4]triazin-2-yl)amino)piperidin-1-yl)ethan-1-one]
1.4	COc1nc(N[C@H]2CCN(S(C)(=O)=O)C[C@H]2F)nn2ccc(-c3ccc4nnn(CC(F)F)c4c3)c12 [Compound 1145, 5-(1-(2,2-Difluoroethyl)-1H-benzo[d][1,2,3]triazol-6-yl)-N-((3R,4S)-3-fluoro-1-(methylsulfonyl)piperidin-4-yl)-4-methoxypyrrolo[2,1-f][1,2,4]triazin-2-amine]
4.8	COc1nc(N[C@@H]2CCN(C)C[C@@H]2F)nn2ccc(-c3cnc4nccn4c3)c12 [Compound 267, N-((3S,4R)-3-Fluoro-1-methylpiperidin-4-yl)-5-(imidazo[1,2-a]pyrimidin-6-yl)-4-methoxypyrrolo[2,1-f][1,2,4]triazin-2-amine]
19.8	COc1nc(N[C@@H]2CC[C@@H]2OC)nn2ccc(-c3cnc4nccn4c3)c12 [Compound 929, 5-(Imidazo[1,2-a]pyrimidin-6-yl)-4-methoxy-N-((1R,2S)-2-methoxycyclobutyl)pyrrolo[2,1-f][1,2,4]triazin-2-amine]
1.8	COc1nc(N[C@H]2CC[C@H](NC(C)=O)CC2)nn2ccc(-c3ccc4nccnc4c3)c12 [Compound 344, N-(trans-4-((4-Methoxy-5-(quinoxalin-6-yl)pyrrolo[2,1-f][1,2,4]triazin-2-yl)amino)cyclohexyl)acetamide]
12.1	COc1nc(NC2CCOCC2)nn2ccc(-c3ccn4nccc4c3)c12 [Compound 36, 4-Methoxy-5-(pyrazolo[1,5-a]pyridin-5-yl)-N-(tetrahydro-2H-pyran-4-yl)pyrrolo[2,1-f][1,2,4]triazin-2-amine]
112	CC(=O)N1C[C@H](F)[C@H](Nc2nc(O)c3c(-c4cnc5nccn5c4)ccn3n2)C1 [Compound 263, 1-((3S,4R)-3-Fluoro-4-((4-hydroxy-5-(imidazo[1,2-a]pyrimidin-6-yl)pyrrolo[2,1-f][1,2,4]triazin-2-yl)amino)pyrrolidin-1-yl)ethan-1-one]
4.5	COc1nc(N[C@H]2CCN(CC(C)(C)O)C[C@H]2F)nn2ccc(-c3ccc4ncccc4c3)c12 [Compound 1045, 1-((3R,4S)-3-Fluoro-4-((4-methoxy-5-(quinolin-6-yl)pyrrolo[2,1-f][1,2,4]triazin-2-yl)amino)piperidin-1-yl)-2-methylpropan-2-ol]
11.5	COc1nc(N[C@H]2C[C@@](C)(NC(=O)OC(C)(C)C)C2)nn2ccc(-c3ccc4nccnc4c3)c12 [Compound 337, tert-Butyl (cis-3-((4-methoxy-5-(quinoxalin-6-yl)pyrrolo[2,1-f][1,2,4]triazin-2-yl)amino)-1-methylcyclobutyl)carbamate]
9.2	COc1nc(N[C@@H]2CCNC[C@@H]2F)nn2ccc(-c3ccn4nccc4c3)c12 [Compound 29]
3.7	COc1nc(N[C@H]2CC[C@@](C)(O)CC2)nn2ccc(-c3ccc4nccnc4c3)c12 [Compound 345, cis-4-((4-Methoxy-5-(quinoxalin-6-yl)pyrrolo[2,1-f][1,2,4]triazin-2-yl)amino)-1-methylcyclohexan-1-ol]
63.3	COc1nc(N[C@H]2C[C@@](C)(O)C2)nn2ccc(-c3cc4ncccc4[nH]3)c12 [Compound 277, cis-3-((4-Methoxy-5-(1H-pyrrolo[3,2-b]pyridin-2-yl)pyrrolo[2,1-f][1,2,4]triazin-2-yl)amino)-1-methylcyclobutan-1-ol]
1.4	COc1nc(N[C@H]2C[C@]3(CCN3C(C)=O)C2)nn2ccc(-c3ccc4nccnc4c3)c12 [Compound 383, 1-((4s,6r)-6-((4-Methoxy-5-(quinoxalin-6-yl)pyrrolo[2,1-f][1,2,4]triazin-2-yl)amino)-1-azaspiro[3.3]heptan-1-yl)ethan-1-one]
2.3	COc1nc(N[C@H]2CC[C@@H](NC(C)=O)CC2)nn2ccc(-c3ccc4nnn(CC(F)F)c4c3)c12 [Compound 717, N-(cis-4-((5-(1-(2,2-Difluoroethyl)-1H-benzo[d][1,2,3]triazol-6-yl)-4-methoxypyrrolo[2,1-f][1,2,4]triazin-2-yl)amino)cyclohexyl)acetamide]
1.1	CNC(=O)c1cnc2ccc(-c3ccn4nc(N[C@H]5CC[C@](C)(O)CC5)nc(OC)c34)cn12 [Compound 441, 6-(2-(((1r,4r)-4-Hydroxy-4-methylcyclohexyl)amino)-4-methoxypyrrolo[2,1-f][1,2,4]triazin-5-yl)-N-methylimidazo[1,2-a]pyridine-3-carboxamide]
3.4	COc1nc(N[C@H]2CC[C@@]3(CCO3)CC2)nn2ccc(-c3cnc4nccn4c3)c12 [Compound 275, 5-(Imidazo[1,2-a]pyrimidin-6-yl)-4-methoxy-N-((4r,7r)-1-oxaspiro[3.5]nonan-7-yl)pyrrolo[2,1-f][1,2,4]triazin-2-amine]
1.7	COc1nc(NC2CC3(COC3)C2)nn2ccc(-c3ccc4nccnc4c3)c12 [Compound 385, 4-Methoxy-5-(quinoxalin-6-yl)-N-(2-oxaspiro[3.3]heptan-6-yl)pyrrolo[2,1-f][11,2,4]triazin-2-amine]
3.9	COc1nc(NC2CCC3(CC2)CNC3)nn2ccc(-c3ccc4ncnn4c3)c12 [Compound 195, 5-([1,2,4]Triazolo[1,5-a]pyridin-6-yl)-4-methoxy-N-(2-azaspiro[3.5]nonan-7-yl)pyrrolo[2,1-f][1,2,4]triazin-2-amine]
1.8	CC[C@]1(O)CC[C@@H](Nc2nc(OC)c3c(-c4ccc5nnn(CC(F)F)c5c4)ccn3n2)CC1 [Compound 726, (1s,4s)-4-((5-(1-(2,2-Difluoroethyl)-1H-benzo[d][1,2,3]triazol-6-yl)-4-methoxypyrrolo[2,1-f][1,2,4]triazin-2-yl)amino)-1-ethylcyclohexan-1-ol]
1	COc1nc(N[C@H]2C[C@](C)(C(=O)N(C)C)C2)nn2ccc(-c3ccc4nc(C)n(CC(F)F)c4c3)c12 [Compound 109, trans-3-((5-(1-(2,2-Difluoroethyl)-2-methyl-1H-benzo[d]imidazol-6-yl)-4-methoxypyrrolo[2,1-f][1,2,4]triazin-2-yl)amino)-N,N,1-trimethylcyclobutane-1-carboxamide]
2.8	COc1nc(N[C@@H]2CN(C(C)=O)C[C@@H]2F)nn2ccc(-c3cc(F)c4nnn(CC(F)F)c4c3)c12 [Compound 812, 1-((3R,4S)-3-((5-(1-(2,2-Difluoroethyl)-4-fluoro-1H-benzo[d][1,2,3]triazol-6-yl)-4-methoxypyrrolo[2,1-f][1,2,4]triazin-2-yl)amino)-4-fluoropyrrolidin-1-yl)ethan-1-one]
1.7	COc1nc(N[C@H]2C[C@](C)(C(=O)NC3CC3)C2)nn2ccc(-c3ccc4ncccc4c3)c12 [Compound 1039, trans-N-Cyclopropyl-3-((4-methoxy-5-(quinolin-6-yl)pyrrolo[2,1-f][1,2,4]triazin-2-yl)amino)-1-methylcyclobutane-1-carboxamide]
1.3	COc1nc(N[C@@H]2CCN(C(C)=O)CC2(F)F)nn2ccc(-c3ccc4ncccc4c3)c12 [Compound 1048, (R)-1-(3,3-Difluoro-4-((4-methoxy-5-(quinolin-6-yl)pyrrolo[2,1-f][1,2,4]triazin-2-yl)amino)piperidin-1-yl)ethan-1-one]
2.5	COc1nc(N[C@H]2CC[C@](C)(O)CC2)nn2ccc(-c3ccc4nc(C)n(CCO)c4c3)c12 [Compound 172, trans-4-((5-(1-(2-Hydroxyethyl)-2-methyl-1H-benzo[d]imidazol-6-yl)-4-methoxypyrrolo[2,1-f][1,2,4]triazin-2-yl)amino)-1-methylcyclohexan-1-ol]
0.4	COc1nc(NC2CCC(C)(C#N)CC2)nn2ccc(-c3cnc4nccn4c3)c12 (stereo not drawn) [Compound 948, 4-((5-(Imidazo[1,2-a]pyrimidin-6-yl)-4-methoxypyrrolo[2,1-f][1,2,4]triazin-2-yl)amino)-1-methylcyclohexane-1-carbonitrile]

SMILES	IC50 [nM]
CCOc1nc(N[C@H]2C[C@@H](OCCO)C2)nn2ccc(-c3ccn4nccc4c3)c12 [Compound 91, 2-(cis-3-((4-Ethoxy-5-(pyrazolo[1,5-a]pyridin-5-yl)pyrrolo[2,1-f][1,2,4]triazin-2-yl)amino)cyclobutoxy)ethan-1-ol]	1.6
